# According to publication PMC7093416, “Selective USP7 inhibition elicits cancer cell killing through a p53-dependent mechanism” (Scientific Reports, 2020):
# System: panel of 484 cancer cell lines
# Experiment: PRISM cancer cell line profiling, 5 days
# Assay type: cell-based
# Set-up: AUC: unit not given beside the values
# Description: Cancer cell line profiling was performed using the Broad’s PRISM platform. Cell treatment and data analysis were performed as described in Yu et al[42]. Raw Luminex signal was converted to AUC values for each cell line as described. The resulting AUC profile for each compound was modeled against DepMap using the limma package in R[71]. Because hotspot mutation analysis was performed against DepMap, TP53 annotations in Fig. 6c,d are directly from DepMap.
smiles,measurement,setting,value
COc1ccc(C2=N[C@@H](c3ccc(Cl)cc3)[C@@H](c3ccc(Cl)cc3)N2C(=O)N2CCNC(=O)C2)c(OC(C)C)c1 [Nutlin-3A],AUC,NCIH2170_LUNG,1.154
same,AUC,NCIH2172_LUNG,1.147
same,AUC,NCIH2228_LUNG,1.087
same,AUC,NCIH2347_LUNG,0.9531
same,AUC,NCIH2444_LUNG,1.324
same,AUC,NCIH2452_PLEURA,1.028
same,AUC,NCIN87_STOMACH,1.465
same,AUC,NUGC3_STOMACH,1.1161
same,AUC,NUGC4_STOMACH,0.888
same,AUC,OAW42_OVARY,1.011
same,AUC,OC314_OVARY,0.964
same,AUC,OC316_OVARY,0.9756
same,AUC,OE19_OESOPHAGUS,1.199
same,AUC,OE21_OESOPHAGUS,1.087
same,AUC,OE33_OESOPHAGUS,0.9763
same,AUC,ONCODG1_OVARY,1.1325
same,AUC,ONS76_CENTRAL_NERVOUS_SYSTEM,0.8865
same,AUC,OSRC2_KIDNEY,0.8477
same,AUC,OUMS23_LARGE_INTESTINE,1.065
same,AUC,OV56_OVARY,1.192
same,AUC,OVCAR8_OVARY,1.207
same,AUC,OVISE_OVARY,0.8578
same,AUC,OVK18_OVARY,0.8595
same,AUC,OVSAHO_OVARY,1.156
same,AUC,OVTOKO_OVARY,0.9039
same,AUC,PANC1_PANCREAS,1.1
same,AUC,PANC0203_PANCREAS,1.166
same,AUC,PANC0327_PANCREAS,1.409
same,AUC,PANC0403_PANCREAS,1.138
same,AUC,PANC0813_PANCREAS,1.0676
same,AUC,PANC1005_PANCREAS,1.216
same,AUC,PATU8902_PANCREAS,1.154
same,AUC,PATU8988S_PANCREAS,1.234
same,AUC,PATU8988T_PANCREAS,1.162
same,AUC,PC3_PROSTATE,0.976
same,AUC,PC14_LUNG,1.1376
same,AUC,PECAPJ15_UPPER_AERODIGESTIVE_TRACT,1.095
same,AUC,PECAPJ41CLONED2_UPPER_AERODIGESTIVE_TRACT,1.019
same,AUC,PECAPJ49_UPPER_AERODIGESTIVE_TRACT,1.2004
same,AUC,PK1_PANCREAS,1.122
same,AUC,PK45H_PANCREAS,1.1189
same,AUC,PK59_PANCREAS,1.0633
same,AUC,PLCPRF5_LIVER,1.234
same,AUC,PSN1_PANCREAS,1.126
same,AUC,QGP1_PANCREAS,1.087
same,AUC,RCC10RGB_KIDNEY,0.8832
same,AUC,RCM1_LARGE_INTESTINE,1.202
same,AUC,RD_SOFT_TISSUE,1.042
same,AUC,RERFLCAD1_LUNG,1.147
same,AUC,RERFLCAD2_LUNG,1.183
same,AUC,RERFLCAI_LUNG,1.0697
same,AUC,RERFLCKJ_LUNG,1.11
same,AUC,RERFLCMS_LUNG,1.091
same,AUC,RH30_SOFT_TISSUE,1.041
same,AUC,RKN_SOFT_TISSUE,1.06
same,AUC,RKO_LARGE_INTESTINE,0.9236
same,AUC,RL952_ENDOMETRIUM,0.9689
same,AUC,RMGI_OVARY,0.9145
same,AUC,RMUGS_OVARY,1.151
same,AUC,RT4_URINARY_TRACT,1.199
same,AUC,RT112_URINARY_TRACT,0.9358
same,AUC,RVH421_SKIN,1.087
same,AUC,S117_SOFT_TISSUE,1.193
same,AUC,SBC5_LUNG,1.066
same,AUC,SCABER_URINARY_TRACT,1.156
same,AUC,SCC25_UPPER_AERODIGESTIVE_TRACT,1.213
same,AUC,SF126_CENTRAL_NERVOUS_SYSTEM,0.9298
same,AUC,SF295_CENTRAL_NERVOUS_SYSTEM,1.194
same,AUC,SF539_CENTRAL_NERVOUS_SYSTEM,1.114
same,AUC,SH4_SKIN,0.9981
same,AUC,SH10TC_STOMACH,1.171
same,AUC,SIMA_AUTONOMIC_GANGLIA,1.067
same,AUC,SJSA1_BONE,0.8737
same,AUC,SKES1_BONE,1.109
same,AUC,SKHEP1_LIVER,0.8252
same,AUC,SKLU1_LUNG,1.249
same,AUC,SKMEL2_SKIN,1.0683
same,AUC,SKMEL3_SKIN,1.137
same,AUC,SKMEL5_SKIN,0.8995
same,AUC,SKMEL24_SKIN,0.8575
same,AUC,SKMEL30_SKIN,1.211
same,AUC,SKMES1_LUNG,0.9911
same,AUC,SKNAS_AUTONOMIC_GANGLIA,1.242
same,AUC,SKNBE2_AUTONOMIC_GANGLIA,1.137
same,AUC,SKOV3_OVARY,1.101
same,AUC,SKUT1_SOFT_TISSUE,1.057
same,AUC,SNB75_CENTRAL_NERVOUS_SYSTEM,1.2
same,AUC,SNGM_ENDOMETRIUM,1.197
same,AUC,SNU46_UPPER_AERODIGESTIVE_TRACT,1.125
same,AUC,SNU61_LARGE_INTESTINE,1.275
same,AUC,SNU81_LARGE_INTESTINE,1.088
same,AUC,SNU213_PANCREAS,1.089
same,AUC,SNU245_BILIARY_TRACT,1.207
same,AUC,SNU308_BILIARY_TRACT,1.147
same,AUC,SNU398_LIVER,1.135
same,AUC,SNU407_LARGE_INTESTINE,0.9535
same,AUC,SNU410_PANCREAS,1.257
same,AUC,SNU423_LIVER,0.9946
same,AUC,SNU449_LIVER,1.202
same,AUC,SNU466_CENTRAL_NERVOUS_SYSTEM,1.108
same,AUC,SNU601_STOMACH,1.158
same,AUC,SNU668_STOMACH,0.9614
same,AUC,SNU685_ENDOMETRIUM,1.162
same,AUC,SNU719_STOMACH,1.114
same,AUC,SNU738_CENTRAL_NERVOUS_SYSTEM,1.181
same,AUC,SNU761_LIVER,1.163
same,AUC,SNU840_OVARY,0.883
same,AUC,SNU869_BILIARY_TRACT,1.149
same,AUC,SNU886_LIVER,1.1718
same,AUC,SNU1041_UPPER_AERODIGESTIVE_TRACT,1.098
same,AUC,SNU1066_UPPER_AERODIGESTIVE_TRACT,1.273
same,AUC,SNU1076_UPPER_AERODIGESTIVE_TRACT,1.222
same,AUC,SNU1077_ENDOMETRIUM,1.256
same,AUC,SNU1079_BILIARY_TRACT,1.079
same,AUC,SNU1105_CENTRAL_NERVOUS_SYSTEM,1.1033
same,AUC,SNU1196_BILIARY_TRACT,1.008
same,AUC,SNU1214_UPPER_AERODIGESTIVE_TRACT,1.185
same,AUC,SNUC2A_LARGE_INTESTINE,1.021
same,AUC,SNUC4_LARGE_INTESTINE,0.9159
same,AUC,SNUC5_LARGE_INTESTINE,1.066
same,AUC,SQ1_LUNG,1.1
same,AUC,SUIT2_PANCREAS,1.124
same,AUC,SW48_LARGE_INTESTINE,0.6832
same,AUC,SW480_LARGE_INTESTINE,1.185
same,AUC,SW579_THYROID,1.033
same,AUC,SW620_LARGE_INTESTINE,1.193
same,AUC,SW780_URINARY_TRACT,0.8319
same,AUC,SW837_LARGE_INTESTINE,1.121
same,AUC,SW900_LUNG,1.197
same,AUC,SW948_LARGE_INTESTINE,1.0613
same,AUC,SW1088_CENTRAL_NERVOUS_SYSTEM,1.216
same,AUC,SW1271_LUNG,0.9516
same,AUC,SW1353_BONE,1.036
same,AUC,SW1573_LUNG,0.9119
same,AUC,SW1710_URINARY_TRACT,1.113
same,AUC,SW1990_PANCREAS,1.0624
same,AUC,T3M10_LUNG,1.167
same,AUC,T24_URINARY_TRACT,1.096
same,AUC,T47D_BREAST,1.041
same,AUC,T98G_CENTRAL_NERVOUS_SYSTEM,0.9597
same,AUC,TCCPAN2_PANCREAS,1.066
same,AUC,TCCSUP_URINARY_TRACT,1.257
same,AUC,TE1_OESOPHAGUS,1.118
same,AUC,TE4_OESOPHAGUS,1.169
same,AUC,TE5_OESOPHAGUS,1.116
same,AUC,TE6_OESOPHAGUS,1.1488
same,AUC,TE8_OESOPHAGUS,1.279
same,AUC,TE9_OESOPHAGUS,0.9402
same,AUC,TE10_OESOPHAGUS,1.052
same,AUC,TE11_OESOPHAGUS,1.135
same,AUC,TEN_ENDOMETRIUM,1.229
same,AUC,TM31_CENTRAL_NERVOUS_SYSTEM,1.145
same,AUC,TM87_SOFT_TISSUE,0.8528
same,AUC,TOV21G_OVARY,0.8573
same,AUC,TOV112D_OVARY,1.15
same,mean diff. between TP53 functional WT and functional mutant populations (AUC),TP53 annotation by functional scores of Giacomelli et al.,0.165 ± 0.011
same,AUC,TT2609C02_THYROID,1.113
same,AUC,TT_OESOPHAGUS,1.115
same,AUC,TT_THYROID,0.8544
same,AUC,TUHR4TKB_KIDNEY,0.8234
same,AUC,U2OS_BONE,0.8753
same,AUC,U118MG_CENTRAL_NERVOUS_SYSTEM,1.124
same,AUC,U251MG_CENTRAL_NERVOUS_SYSTEM,1.1855
same,AUC,UACC62_SKIN,0.841
same,AUC,UACC257_SKIN,0.9099
same,AUC,UBLC1_URINARY_TRACT,1.2
same,AUC,UMUC1_URINARY_TRACT,1.103
same,AUC,UO31_KIDNEY,0.9228
same,AUC,VMCUB1_URINARY_TRACT,1.108
same,AUC,VMRCRCW_KIDNEY,1.098
same,AUC,VMRCRCZ_KIDNEY,1.139
same,AUC,WM88_SKIN,0.8161
same,AUC,WM793_SKIN,0.8713
same,AUC,WM983B_SKIN,0.9957
same,AUC,WM1799_SKIN,0.8817
same,AUC,WM2664_SKIN,0.8653
same,AUC,YAPC_PANCREAS,1.201
same,AUC,YD8_UPPER_AERODIGESTIVE_TRACT,1.226
same,AUC,YD10B_UPPER_AERODIGESTIVE_TRACT,1.17
same,AUC,YD15_SALIVARY_GLAND,1.2
same,AUC,YD38_UPPER_AERODIGESTIVE_TRACT,1.227
same,AUC,YH13_CENTRAL_NERVOUS_SYSTEM,1.109
same,AUC,YKG1_CENTRAL_NERVOUS_SYSTEM,1.146
same,AUC,ZR751_BREAST,1.121
